From paper PMC11212047, “Merging Flow Synthesis and Enzymatic Maturation to Expand the Chemical Space of Lasso Peptides” (Journal of the American Chemical Society, 2024)
Where no end group is shown, it is not given here.

Test system: Salmonella enterica serotype Enteritidis
Assay: Spot-on-lawn antimicrobial activity assay
Format: cell-based
Conditions: spot-on-lawn on M63 soft agar, 37 °C overnight; dried maturation assay in MeOH (41.7 µM if full conversion, 5 µL; Tyr9 derivatives also 69.5 µM, 8 µL); halo diameters
Experimental: We next evaluated all lasso peptides and their corresponding branched-cyclic peptides for antimicrobial activity in spot-on-lawn assays against Salmonella enterica serotype Enteritidis.[42] […] Moreover, steric constraints in the tight binding pocket are a limiting factor for Tyr-9 substitutions.
4.3 Antimicrobial activity assay against Salmonella strain
The antimicrobial activity assay of MccJ25-derivatives was performed against the indicative strain Salmonella enterica serotype Enteritidis.
4.3.1 Preparation of M63 agar
For M63 agar plates (20 g agar/L): KH2PO4 (3 g/L), K2HPO4 (7 g/L), (NH4)2SO4 (2 g/L), Casamino acids (1 g/L) were dissolved in 900 mL water. Agar (20 g/L) was added, and the suspension was filled up to 1 L and autoclaved (121 °C for 20 min). […]
The indicative strain is freshly streaked on a LB agar plate and incubated at 37 °C overnight. […] The plates were inspected for bacterial growth and possible halos were measured. […]
Fig. S77: Antimicrobial activity test using spot-on-lawn assays with dried m aturation assay dissolved in 30 µL MeOH: (A) Peptides analyzed after maturation assay. (B) Photos of spot -on-lawn assays and measured halo diameters to evaluate trends in activity. The peptide with three D-amino acids was analyzed on a different date, ther efore, diameter of control C (MccJ25) . […]

Row | Substance | antimicrobial activity of enzymatically matured lasso peptides (in words)
1 | microcin J25 (GGAGHVPEYFVGIGTPISFYG; lactam (positions not given here); also: lasso peptide: isopeptide ring closure, ring positions not given here; UniProt Q9X2V7 38-58, looked up) [1′, native lasso peptide (21 AA), matured from WT-McjA, reference compound] | activities were only observed
2 | 9′: His-12 MccJ25 mutant (His-12, Phe-13, Ile-15), L-His (GGAGHVPEYFVHFGIPISFYG; ends and bridges not checked; also: lasso peptide: isopeptide ring closure, ring positions not given here; UniProt Q9X2V7 38-58, looked up, variant G12H I13F T15I) | slightly stronger activity
